Experimental data reported in ChEMBL document CHEMBL1201862, “PubChem BioAssay data set” (2004).
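Exposure lasted 48 hours, with cells grown in 96-well plates and compounds tested at five concentrations. GI50: concentration for 50% inhibition of growth.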 The source made the active and inactive calls. No stated cut-off is given here; in the data, active = GI50 up to about 1.1 µM and inactive = higher.

Assays:
Assay in all cases: DTP human tumour cell line panel, 48 h
[1] = test system: M19-MEL
[2] = test system: K562
[3] = test system: SNB-19
[4] = test system: SF-295
[5] = test system: Malme-3M
[6] = test system: EKVX
[7] = test system: LOX IMVI
[8] = test system: RXF 393
[9] = test system: M14
[10] = test system: SK-MEL-28
[11] = test system: BT-549
[12] = test system: DU-145
[13] = test system: HCT-15
[14] = test system: CCRF-CEM
[15] = test system: MDA-N
[16] = test system: OVCAR-4
[17] = test system: SF-539
[18] = test system: RPMI-8226
[19] = test system: OVCAR-3
[20] = test system: HCT-116

`O=C(NC(=O)c1c(F)cccc1F)Nc1cccc(Oc2ncc(Cl)cn2)c1` was tested, and the GI50 [1] was > 100 µM (inactive), the GI50 [2] was 3.1 µM (inactive) and the GI50 [3] was 45.5 µM (inactive). The GI50 [4] was 32.3 µM (inactive), the GI50 [5] was > 68.4 µM (inactive) and the GI50 [6] was > 100 µM (inactive). The GI50 [7] was 29.3 µM (inactive), the GI50 [8] was 38.5 µM (inactive) and the GI50 [9] was > 51.2 µM (inactive). For the same compound, the GI50 [10] was > 100 µM (inactive), the GI50 [11] was > 24.8 µM (inactive) and the GI50 [12] was > 100 µM (inactive). The GI50 [13] was 3.27 µM, the GI50 [14] was 47.1 µM (inactive) and the GI50 [15] was 1.56 µM (inactive). The GI50 [16] was > 69 µM (inactive), the GI50 [17] was 23.3 µM (inactive) and the GI50 [18] was > 94.8 µM (inactive). The GI50 [19] was 40.4 µM (inactive) and the GI50 [20] was 8.79 µM (inactive).

With `Nc1ccc(Sc2c3ccccc3nc3ccccc23)cc1` the GI50 [1] was 20.5 µM (inactive), the GI50 [2] was 2.65 µM (inactive) and the GI50 [3] was 22.1 µM (inactive). The GI50 [4] was 19.1 µM (inactive), the GI50 [5] was 19.7 µM (inactive) and the GI50 [6] was 23 µM (inactive). For the same compound, the GI50 [7] was 5.62 µM (inactive), the GI50 [8] was 18.7 µM (inactive) and the GI50 [9] was 15.7 µM (inactive). For the same compound, the GI50 [10] was 15.2 µM (inactive), the GI50 [11] was 14.3 µM (inactive) and the GI50 [12] was 13.7 µM (inactive). The GI50 [13] was 17.2 µM, the GI50 [14] was 3.28 µM (inactive) and the GI50 [15] was 12.2 µM (inactive). The GI50 [16] was 12.1 µM (inactive), the GI50 [17] was 15.6 µM (inactive) and the GI50 [18] was 2.82 µM (inactive). For the same compound, the GI50 [19] was 15.6 µM (inactive) and the GI50 [20] was 10.8 µM (inactive).

In the case of `Cc1nc2ccccc2c(=O)n1NC(=S)Nc1cccc(Cl)c1`, the GI50 [1] is reported as > 100 µM (inactive), the GI50 [2] is reported as > 100 µM (inactive) and the GI50 [4] is reported as > 100 µM (inactive). For the same compound, the GI50 [5] was > 100 µM (inactive), the GI50 [7] was 65.5 µM (inactive) and the GI50 [8] was > 100 µM (inactive). The GI50 [9] was > 100 µM (inactive), the GI50 [10] was > 100 µM (inactive) and the GI50 [13] was greater than 100 µM. For the same compound, the GI50 [14] was > 100 µM (inactive), the GI50 [16] was > 100 µM (inactive) and the GI50 [17] was > 100 µM (inactive). The GI50 [18] was > 100 µM (inactive) and the GI50 [20] was > 100 µM (inactive).

With `COc1cc([C@@H]2c3cc4c(cc3[C@@H](NC(=O)c3cccc([N+](=O)[O-])c3)C3COC(=O)[C@@H]32)OCO4)cc(OC)c1O` (stereo not given in full) the GI50 [1] was 2.55 µM (inactive), the GI50 [2] was 2.2 µM (inactive) and the GI50 [3] was 0.366 µM (active). For the same compound, the GI50 [4] was 0.245 µM (active), the GI50 [5] was 0.543 µM (active) and the GI50 [6] was 1.25 µM (inactive). For the same compound, the GI50 [7] was 0.295 µM (active), the GI50 [8] was 2.34 µM (inactive) and the GI50 [9] was 0.621 µM (active). The GI50 [10] was 3.27 µM (inactive), the GI50 [13] was 1.28 µM and the GI50 [14] was 0.0376 µM (active). For the same compound, the GI50 [16] was 10.5 µM (inactive), the GI50 [17] was 0.294 µM (active) and the GI50 [18] was 0.452 µM (active). The GI50 [19] was 3.34 µM (inactive) and the GI50 [20] was 1.5 µM (inactive).

With `COc1ccc(C(=O)C(c2ccc(OC)cc2)C2OC(=O)C(Cl)=C2Cl)cc1` (stereo not given) the GI50 [1] was > 100 µM (inactive), the GI50 [2] was > 100 µM (inactive) and the GI50 [3] was > 100 µM (inactive). The GI50 [4] was > 100 µM (inactive), the GI50 [5] was > 100 µM (inactive) and the GI50 [6] was > 100 µM (inactive). The GI50 [7] was > 100 µM (inactive), the GI50 [8] was > 100 µM (inactive) and the GI50 [9] was > 100 µM (inactive). The GI50 [10] was > 100 µM (inactive), the GI50 [13] was greater than 100 µM and the GI50 [14] was > 100 µM (inactive). The GI50 [16] was > 100 µM (inactive), the GI50 [17] was > 100 µM (inactive) and the GI50 [18] was > 100 µM (inactive). The GI50 [19] was > 100 µM (inactive) and the GI50 [20] was > 100 µM (inactive).

`OCC(O)C(OC1OC(CO)C(O)C(O)C1O)c1nn(-c2ccc(Cl)cc2)c2nc3cc(Cl)c(Cl)cc3nc12` (stereo not given) was tested, and the GI50 [1] was > 100 µM (inactive), the GI50 [2] was > 100 µM (inactive) and the GI50 [3] was > 100 µM (inactive). For the same compound, the GI50 [4] was > 100 µM (inactive), the GI50 [5] was > 100 µM (inactive) and the GI50 [6] was > 100 µM (inactive). The GI50 [7] was > 100 µM (inactive), the GI50 [8] was > 100 µM (inactive) and the GI50 [9] was > 100 µM (inactive). For the same compound, the GI50 [10] was > 100 µM (inactive), the GI50 [13] was greater than 100 µM and the GI50 [14] was > 100 µM (inactive). The GI50 [16] was > 100 µM (inactive), the GI50 [17] was > 100 µM (inactive) and the GI50 [18] was > 100 µM (inactive). The GI50 [19] was > 100 µM (inactive) and the GI50 [20] was > 100 µM (inactive).

In the case of `Clc1ccc(OCCSCCCCCCCCCCSCCOc2ccc(Cl)cc2)cc1`, the GI50 [1] is reported as > 100 µM (inactive), the GI50 [2] is reported as > 100 µM (inactive) and the GI50 [3] is reported as > 100 µM (inactive). For the same compound, the GI50 [4] was > 100 µM (inactive), the GI50 [5] was > 100 µM (inactive) and the GI50 [6] was > 100 µM (inactive). For the same compound, the GI50 [7] was > 100 µM (inactive), the GI50 [8] was > 100 µM (inactive) and the GI50 [10] was > 100 µM (inactive). For the same compound, the GI50 [13] was greater than 100 µM, the GI50 [14] was > 100 µM (inactive) and the GI50 [17] was > 100 µM (inactive). For the same compound, the GI50 [18] was > 100 µM (inactive) and the GI50 [19] was > 100 µM (inactive).

`CC(C)(C)c1nc2c(o1)C(=O)c1ccccc1C2=O` was tested, and the GI50 [1] was 1.25 µM (inactive), the GI50 [2] was 0.834 µM (active) and the GI50 [3] was 5.19 µM (inactive). The GI50 [4] was 1.93 µM (inactive), the GI50 [5] was 0.574 µM (active) and the GI50 [6] was 2.68 µM (inactive). For the same compound, the GI50 [7] was 0.394 µM (active), the GI50 [8] was 2.08 µM (inactive) and the GI50 [9] was 0.759 µM (active). For the same compound, the GI50 [10] was 1.95 µM (inactive), the GI50 [11] was 1.51 µM (inactive) and the GI50 [12] was 1.1 µM (active). For the same compound, the GI50 [13] was 2.48 µM, the GI50 [14] was 1.47 µM (inactive) and the GI50 [15] was 0.199 µM (active). For the same compound, the GI50 [16] was 0.853 µM (active), the GI50 [17] was 1.12 µM (inactive) and the GI50 [18] was 1.93 µM (inactive). For the same compound, the GI50 [19] was 0.721 µM (active) and the GI50 [20] was 0.838 µM (active).

For `COC(=O)C12C3C4C1C1C2C3C41C(=O)OC(C)(C)C` (stereo not given), the GI50 [1] was > 100 µM (inactive), the GI50 [2] was > 70.1 µM (inactive) and the GI50 [3] was > 100 µM (inactive). The GI50 [4] was > 100 µM (inactive), the GI50 [5] was > 100 µM (inactive) and the GI50 [6] was > 100 µM (inactive). The GI50 [7] was > 42.9 µM (inactive), the GI50 [8] was > 100 µM (inactive) and the GI50 [9] was > 100 µM (inactive). For the same compound, the GI50 [10] was > 100 µM (inactive), the GI50 [13] was greater than 100 µM and the GI50 [14] was > 71.3 µM (inactive). The GI50 [16] was > 100 µM (inactive), the GI50 [17] was > 100 µM (inactive) and the GI50 [18] was > 49.2 µM (inactive). The GI50 [19] was > 100 µM (inactive) and the GI50 [20] was 26.7 µM (inactive).

With `CCN(CC)CCOC(=O)Cc1cccc2c(=O)cc(-c3ccccc3)oc12` the GI50 [1] was 84.5 µM (inactive), the GI50 [2] was 40.3 µM (inactive) and the GI50 [3] was 56.1 µM (inactive). For the same compound, the GI50 [4] was 55.6 µM (inactive), the GI50 [5] was 39.3 µM (inactive) and the GI50 [6] was 40.7 µM (inactive). For the same compound, the GI50 [7] was 29.6 µM (inactive), the GI50 [8] was 41.5 µM (inactive) and the GI50 [9] was 41.7 µM (inactive). For the same compound, the GI50 [10] was 54 µM (inactive), the GI50 [11] was 40.7 µM (inactive) and the GI50 [12] was 40.3 µM (inactive). The GI50 [13] was 18.5 µM, the GI50 [14] was 34.4 µM (inactive) and the GI50 [15] was 22.3 µM (inactive). For the same compound, the GI50 [16] was 35.9 µM (inactive), the GI50 [17] was 44.1 µM (inactive) and the GI50 [18] was 35.8 µM (inactive). For the same compound, the GI50 [19] was 52.8 µM (inactive) and the GI50 [20] was 48.3 µM (inactive).

In the case of `COC(=O)C(C(=O)C(=O)Nc1cccc(O)c1)c1nc2ccc(Cl)cc2nc1O` (stereo not given), the GI50 [1] is reported as > 100 µM (inactive), the GI50 [2] is reported as > 100 µM (inactive) and the GI50 [3] is reported as > 100 µM (inactive). For the same compound, the GI50 [4] was > 100 µM (inactive), the GI50 [5] was > 100 µM (inactive) and the GI50 [6] was 48.9 µM (inactive). For the same compound, the GI50 [7] was > 100 µM (inactive), the GI50 [8] was 74.3 µM (inactive) and the GI50 [9] was > 100 µM (inactive). For the same compound, the GI50 [10] was > 100 µM (inactive), the GI50 [13] was greater than 100 µM and the GI50 [14] was > 100 µM (inactive). The GI50 [16] was > 100 µM (inactive), the GI50 [17] was > 100 µM (inactive) and the GI50 [18] was > 100 µM (inactive). The GI50 [19] was > 100 µM (inactive) and the GI50 [20] was > 100 µM (inactive).

For `Cc1cc2c(=O)cc(-c3ccc(C(F)(F)F)cc3)oc2c(C(=O)O)c1C`, the GI50 [1] was > 100 µM (inactive), the GI50 [2] was > 100 µM (inactive) and the GI50 [3] was > 100 µM (inactive). The GI50 [4] was > 100 µM (inactive), the GI50 [5] was > 100 µM (inactive) and the GI50 [6] was > 100 µM (inactive). The GI50 [7] was > 100 µM (inactive), the GI50 [8] was > 100 µM (inactive) and the GI50 [9] was > 100 µM (inactive). For the same compound, the GI50 [10] was > 100 µM (inactive), the GI50 [13] was greater than 100 µM and the GI50 [14] was > 100 µM (inactive). The GI50 [16] was > 100 µM (inactive), the GI50 [17] was > 100 µM (inactive) and the GI50 [18] was > 100 µM (inactive). For the same compound, the GI50 [19] was > 100 µM (inactive) and the GI50 [20] was > 100 µM (inactive).
